From ChEMBL document CHEMBL1201862, “PubChem BioAssay data set” (2004)
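96-well plates; 48 h exposure; 5 concentrations. Endpoints by linear interpolation between flanking doses. Not reached: highest tested concentration assigned. GI50: concentration for 50% inhibition of growth.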 Active and inactive are the calls of the source. Rule as the data show it: active = GI50 up to about 1.1 µM and inactive = higher.

What was measured:
Assay in all cases: inhibition of tumour cell growth, NCI panel, 48 h
UO-31 = system: UO-31
SNB-19 = system: SNB-19
UACC-62 = system: UACC-62
KM12 = system: KM12
SK-MEL-5 = system: SK-MEL-5
LOX IMVI = system: LOX IMVI
SF-295 = system: SF-295
SF-539 = system: SF-539
CCRF-CEM = system: CCRF-CEM
HCT-116 = system: HCT-116
SN12C = system: SN12C
SF-268 = system: SF-268
U-251 = system: U-251
HCC 2998 = system: HCC 2998
NCI-H23 = system: NCI-H23
SW-620 = system: SW-620
NCI-H522 = system: NCI-H522

SMILES	GI50 (UO-31)	GI50 (SNB-19)	GI50 (UACC-62)	GI50 (KM12)	GI50 (SK-MEL-5)	GI50 (LOX IMVI)	GI50 (SF-295)	GI50 (SF-539)	GI50 (CCRF-CEM)	GI50 (HCT-116)	GI50 (SN12C)	GI50 (SF-268)	GI50 (U-251)	GI50 (HCC 2998)	GI50 (NCI-H23)	GI50 (SW-620)	GI50 (NCI-H522)
COc1ccccc1NC(=O)C1=C(C)NC(C)=C(C(=O)Nc2ccccc2OC)C1c1ccccc1Cl	28.5 µM (inactive)	> 100 µM (inactive)	> 100 µM (inactive)	61 µM (inactive)	47.8 µM (inactive)	> 100 µM (inactive)	> 100 µM (inactive)	26.1 µM (inactive)	38.4 µM (inactive)	52.8 µM (inactive)	> 100 µM (inactive)	> 100 µM (inactive)	78.3 µM (inactive)	> 100 µM (inactive)	> 100 µM (inactive)	> 100 µM (inactive)	–
Cc1c(C)c2ccc(OC(C)C(=O)O)cc2oc1=O (centres undefined)	> 100 µM (inactive)	> 100 µM (inactive)	> 100 µM (inactive)	> 100 µM (inactive)	> 100 µM (inactive)	> 100 µM (inactive)	> 100 µM (inactive)	> 100 µM (inactive)	> 100 µM (inactive)	> 100 µM (inactive)	> 100 µM (inactive)	> 100 µM (inactive)	> 100 µM (inactive)	> 100 µM (inactive)	> 100 µM (inactive)	> 100 µM (inactive)	> 100 µM (inactive)
Clc1cccc(N2CCN(CCCN3CCc4c([nH]c5ccccc45)C3c3cccnc3)CC2)c1 (centres undefined)	5.15 µM (inactive)	20.6 µM (inactive)	> 10 µM (inactive)	> 10 µM (inactive)	5.32 µM (inactive)	8.17 µM (inactive)	6.92 µM (inactive)	3.61 µM (inactive)	6.76 µM (inactive)	5.78 µM (inactive)	12.8 µM (inactive)	–	10.7 µM (inactive)	–	10.7 µM (inactive)	13 µM (inactive)	11.8 µM (inactive)
C/N=c1/ss/c(=N\C(SC)=[N+](C)C)n1C.[O-][Cl+3]([O-])([O-])[O-]	> 100 µM (inactive)	> 100 µM (inactive)	3.99 µM (inactive)	> 100 µM (inactive)	0.419 µM (active)	> 100 µM (inactive)	> 100 µM (inactive)	–	3.97 µM (inactive)	> 100 µM (inactive)	> 100 µM (inactive)	> 100 µM (inactive)	> 100 µM (inactive)	> 100 µM (inactive)	> 100 µM (inactive)	> 100 µM (inactive)	14.8 µM (inactive)
O=C1C(c2ccccc2)=C(c2ccccc2)C(c2ccccc2)/C1=C1\C(=O)C(c2ccccc2)=C(c2ccccc2)C1c1ccccc1 (centres undefined)	> 100 µM (inactive)	–	> 100 µM (inactive)	> 100 µM (inactive)	> 100 µM (inactive)	> 100 µM (inactive)	> 100 µM (inactive)	> 100 µM (inactive)	–	> 100 µM (inactive)	> 100 µM (inactive)	> 100 µM (inactive)	> 100 µM (inactive)	> 100 µM (inactive)	> 100 µM (inactive)	> 100 µM (inactive)	> 100 µM (inactive)
COC12OCCN(C)C1=CC(=O)C1N=NCC12 (centres undefined)	> 100 µM (inactive)	–	> 100 µM (inactive)	> 100 µM (inactive)	> 100 µM (inactive)	> 100 µM (inactive)	> 100 µM (inactive)	> 100 µM (inactive)	> 100 µM (inactive)	> 100 µM (inactive)	> 100 µM (inactive)	–	> 100 µM (inactive)	> 100 µM (inactive)	> 100 µM (inactive)	> 100 µM (inactive)	> 100 µM (inactive)
C/C=C/C(=O)[C@@H](O)C(C)C	> 100 µM (inactive)	> 100 µM (inactive)	> 100 µM (inactive)	> 100 µM (inactive)	> 100 µM (inactive)	–	> 100 µM (inactive)	–	–	> 100 µM (inactive)	> 100 µM (inactive)	> 100 µM (inactive)	> 100 µM (inactive)	> 100 µM (inactive)	> 100 µM (inactive)	> 100 µM (inactive)	> 100 µM (inactive)
O=C1C=CC(=O)C12CCc1ccccc12	> 100 µM (inactive)	> 100 µM (inactive)	> 100 µM (inactive)	> 100 µM (inactive)	> 100 µM (inactive)	> 60.8 µM (inactive)	> 31.6 µM (inactive)	> 100 µM (inactive)	28.5 µM (inactive)	> 100 µM (inactive)	> 100 µM (inactive)	> 100 µM (inactive)	> 100 µM (inactive)	> 100 µM (inactive)	> 100 µM (inactive)	64.7 µM (inactive)	16.7 µM (inactive)
Clc1ccc(-c2c(C3=NCCCN3)nnn2-c2ccccc2)cc1	71.9 µM (inactive)	> 100 µM (inactive)	> 100 µM (inactive)	> 100 µM (inactive)	> 100 µM (inactive)	24.9 µM (inactive)	> 100 µM (inactive)	> 100 µM (inactive)	35.9 µM (inactive)	43.1 µM (inactive)	> 100 µM (inactive)	> 100 µM (inactive)	> 100 µM (inactive)	> 100 µM (inactive)	> 100 µM (inactive)	20.2 µM (inactive)	> 100 µM (inactive)
CC(=O)OCCOCNC(=S)N/N=C/c1ccc([N+](=O)[O-])s1	> 100 µM (inactive)	> 100 µM (inactive)	24.3 µM (inactive)	34.4 µM (inactive)	25.7 µM (inactive)	33.4 µM (inactive)	40.4 µM (inactive)	34 µM (inactive)	4.72 µM (inactive)	20.1 µM (inactive)	36.4 µM (inactive)	61.9 µM (inactive)	32.1 µM (inactive)	43.2 µM (inactive)	19 µM (inactive)	30.5 µM (inactive)	11.2 µM (inactive)
CCOC(=O)C1(Br)S(=O)(=O)OCCOS1(=O)=O	> 100 µM (inactive)	> 100 µM (inactive)	> 100 µM (inactive)	–	> 100 µM (inactive)	> 100 µM (inactive)	> 100 µM (inactive)	> 100 µM (inactive)	> 100 µM (inactive)	> 100 µM (inactive)	> 100 µM (inactive)	> 100 µM (inactive)	> 100 µM (inactive)	> 100 µM (inactive)	> 100 µM (inactive)	> 100 µM (inactive)	> 100 µM (inactive)
O=C1C[S+]([O-])c2ccccc2N1 (centres undefined)	> 100 µM (inactive)	> 100 µM (inactive)	> 100 µM (inactive)	> 100 µM (inactive)	> 100 µM (inactive)	52.6 µM (inactive)	> 100 µM (inactive)	> 100 µM (inactive)	> 100 µM (inactive)	71.1 µM (inactive)	> 100 µM (inactive)	71.8 µM (inactive)	> 100 µM (inactive)	> 100 µM (inactive)	> 100 µM (inactive)	–	> 100 µM (inactive)
CCOC(=O)C1=C(Nc2ccc(Cl)cc2Cl)OCC1=O	> 100 µM (inactive)	> 100 µM (inactive)	> 100 µM (inactive)	> 100 µM (inactive)	–	> 100 µM (inactive)	> 100 µM (inactive)	> 100 µM (inactive)	–	> 100 µM (inactive)	> 100 µM (inactive)	> 100 µM (inactive)	> 100 µM (inactive)	> 100 µM (inactive)	> 100 µM (inactive)	> 100 µM (inactive)	> 100 µM (inactive)
O=C(O)C12CC3CC(CC(F)(C3)C1)C2	> 100 µM (inactive)	–	> 100 µM (inactive)	> 100 µM (inactive)	> 100 µM (inactive)	> 100 µM (inactive)	–	> 100 µM (inactive)	> 100 µM (inactive)	> 100 µM (inactive)	–	–	> 100 µM (inactive)	> 100 µM (inactive)	> 100 µM (inactive)	> 100 µM (inactive)	> 100 µM (inactive)
CCOC(=N)CC(=O)Nc1cccc(C)c1C	> 100 µM (inactive)	> 100 µM (inactive)	> 100 µM (inactive)	> 100 µM (inactive)	> 100 µM (inactive)	> 100 µM (inactive)	> 100 µM (inactive)	> 100 µM (inactive)	> 100 µM (inactive)	> 100 µM (inactive)	> 100 µM (inactive)	> 100 µM (inactive)	> 100 µM (inactive)	> 100 µM (inactive)	> 100 µM (inactive)	> 100 µM (inactive)	> 100 µM (inactive)
CCC1(CN(C)C)CC/C(=C\c2ccc(OC)cc2)C1=O (centres undefined)	> 100 µM (inactive)	> 100 µM (inactive)	> 100 µM (inactive)	> 100 µM (inactive)	58.6 µM (inactive)	> 100 µM (inactive)	> 100 µM (inactive)	> 100 µM (inactive)	30 µM (inactive)	93.1 µM (inactive)	> 100 µM (inactive)	> 100 µM (inactive)	> 100 µM (inactive)	> 100 µM (inactive)	> 100 µM (inactive)	> 100 µM (inactive)	31.5 µM (inactive)
CCCCCCCCCCCCCCCC(=O)N[C@H]1CCc2cc(OC)c(OC)c(OC)c2-c2ccc(SC)c(=O)cc21	3.52 µM (inactive)	0.973 µM (active)	0.601 µM (active)	0.29 µM (active)	0.5 µM (active)	2.45 µM (inactive)	0.664 µM (active)	0.294 µM (active)	0.356 µM (active)	0.338 µM (active)	0.649 µM (active)	0.54 µM (active)	0.294 µM (active)	0.297 µM (active)	0.29 µM (active)	0.45 µM (active)	–
